Earlier results as cited in patent publication US20140284468A1, “Cancer patient selection for administration of therapeutic agents using mass spectral analysis of blood-based samples” (Biodesix, Inc., priority 2010, published 2014).

Tested on: NSCLC, SCCHN, and CRC patients
Settings: VeriStrat poor subgroup, monotherapy versus placebo

Question: For C#Cc1cccc(Nc2ncnc3cc(OCCOC)c(OCCOC)cc23)c1 [erlotinib], which treatment benefit is on record?
Answer: essentially equivalent to treatment with placebo
